In the NIST ThermoML archive (doi:10.1021/je034203p):
Numbers after ± are expanded uncertainties.

Legend:
[1] = 298.15 K, 101.3 kPa, Liquid; for viscosity: Capillary tube (Ostwald / Ubbelohde) method
[2] = xn = mol fraction of the nth substance listed; details: 298.15 K, 101.3 kPa, Liquid; for viscosity: Capillary tube (Ostwald / Ubbelohde) method

CC(C)=O [acetone]
[1]
Details	mass density [kg/m3]	viscosity [mPa·s]
–	780.8 ± 0.7	0.3121 ± 0.0066

c1ccccc1 [benzene]
[1]
Details	mass density [kg/m3]	viscosity [mPa·s]
–	869.7 ± 0.6	0.608 ± 0.0078

CCCCO [butan-1-ol]
[1]
Details	mass density [kg/m3]	viscosity [mPa·s]
–	806.3 ± 0.7	2.538 ± 0.023

CCC(C)O (stereo not drawn) [butan-2-ol]
[1]
Details	mass density [kg/m3]	viscosity [mPa·s]
–	804.8 ± 0.7	3.103 ± 0.028

CCC(C)=O [butanone]
[1]
Details	mass density [kg/m3]	viscosity [mPa·s]
–	797.4 ± 0.7	0.4011 ± 0.0069

CCO [ethanol]
[1]
Details	mass density [kg/m3]	viscosity [mPa·s]
–	787.4 ± 0.7	1.112 ± 0.011

CCOC(C)=O [ethyl acetate]
[1]
Details	mass density [kg/m3]	viscosity [mPa·s]
–	894 ± 0.6	0.4274 ± 0.007

CO [methanol]
[1]
Details	mass density [kg/m3]	viscosity [mPa·s]
–	788.1 ± 0.7	0.5482 ± 0.0075

COC(C)=O [methyl ethanoate]
[1]
Details	mass density [kg/m3]	viscosity [mPa·s]
–	923.9 ± 0.6	0.3711 ± 0.0068

CCCO [propan-1-ol]
[1]
Details	mass density [kg/m3]	viscosity [mPa·s]
–	800 ± 0.7	1.954 ± 0.017

CC(C)O [propan-2-ol]
[1]
Details	mass density [kg/m3]	viscosity [mPa·s]
–	784.3 ± 0.7	2.044 ± 0.018

ClC(Cl)=C(Cl)Cl [tetrachloroethene]
[1]
Details	mass density [kg/m3]	viscosity [mPa·s]
–	1610.2 ± 1.6	0.8474 ± 0.0091

ClC(Cl)=C(Cl)Cl [tetrachloroethene] + Cc1ccccc1
[2]
Details	mass density [kg/m3]	viscosity [mPa·s]
x1 = 0.1034	932 ± 0.6	0.5799 ± 0.0077
x1 = 0.2062	1004.7 ± 0.6	0.6014 ± 0.0078
x1 = 0.3079	1078.4 ± 0.7	0.6234 ± 0.0079
x1 = 0.4093	1151.3 ± 0.8	0.6477 ± 0.008
x1 = 0.5095	1225.3 ± 0.9	0.6743 ± 0.0081
x1 = 0.6092	1300.1 ± 1.1	0.7053 ± 0.0083
x1 = 0.7083	1376.8 ± 1.2	0.7377 ± 0.0085
x1 = 0.806	1451.7 ± 1.3	0.7701 ± 0.0087
x1 = 0.9038	1530.1 ± 1.5	0.8084 ± 0.0089
x1 = 1	1610.2 ± 1.6	0.8474 ± 0.0091

ClC(Cl)=C(Cl)Cl [tetrachloroethene] + ClC(Cl)(Cl)Cl
[2]
Details	mass density [kg/m3]	viscosity [mPa·s]
x1 = 0.0946	1583.5 ± 1.6	0.8943 ± 0.0094
x1 = 0.1904	1582.4 ± 1.6	0.8803 ± 0.0093
x1 = 0.2873	1582 ± 1.6	0.8675 ± 0.0092
x1 = 0.3853	1582.5 ± 1.6	0.8569 ± 0.0092
x1 = 0.4845	1583.8 ± 1.6	0.8504 ± 0.0091
x1 = 0.5859	1587.2 ± 1.6	0.8452 ± 0.0091
x1 = 0.6876	1590.1 ± 1.6	0.8407 ± 0.0091
x1 = 0.7904	1596.8 ± 1.6	0.8422 ± 0.0091
x1 = 0.8946	1603.2 ± 1.6	0.8445 ± 0.0091
x1 = 1	1610.2 ± 1.6	0.8474 ± 0.0091

ClC(Cl)=C(Cl)Cl [tetrachloroethene] + c1ccccc1
[2]
Details	mass density [kg/m3]	viscosity [mPa·s]
x1 = 0.0883	939.8 ± 0.6	0.6141 ± 0.0078
x1 = 0.1788	1011.5 ± 0.5	0.6279 ± 0.0079
x1 = 0.272	1084.6 ± 0.7	0.6438 ± 0.008
x1 = 0.3674	1156.7 ± 0.8	0.6618 ± 0.0081
x1 = 0.4655	1228.8 ± 0.9	0.6834 ± 0.0082
x1 = 0.5671	1302.3 ± 1.1	0.7088 ± 0.0083
x1 = 0.6706	1377.4 ± 1.2	0.7367 ± 0.0085
x1 = 0.777	1453.2 ± 1.3	0.7693 ± 0.0087
x1 = 0.8873	1531.7 ± 1.5	0.8051 ± 0.0089
x1 = 1	1610.2 ± 1.6	0.8474 ± 0.0091

ClC(Cl)(Cl)Cl [tetrachloromethane]
[1]
Details	mass density [kg/m3]	viscosity [mPa·s]
–	1586.1 ± 1.6	0.9096 ± 0.0095

ClC(Cl)(Cl)Cl [tetrachloromethane] + ClC(Cl)=C(Cl)Cl
[2], x2 = 0
Details	mass density [kg/m3]	viscosity [mPa·s]
–	1586.1 ± 1.6	0.9096 ± 0.0095

ClC(Cl)(Cl)Cl [tetrachloromethane] + ClC=C(Cl)Cl
[2], x2 = 0
Details	mass density [kg/m3]	viscosity [mPa·s]
–	1586.1 ± 1.6	0.9096 ± 0.0095

Cc1ccccc1 [toluene]
[1]
Details	mass density [kg/m3]	viscosity [mPa·s]
–	860.5 ± 0.6	0.5641 ± 0.0076

Cc1ccccc1 [toluene] + ClC(Cl)=C(Cl)Cl
[2], x2 = 0
Details	mass density [kg/m3]	viscosity [mPa·s]
–	860.5 ± 0.6	0.5641 ± 0.0076

Cc1ccccc1 [toluene] + ClC=C(Cl)Cl
[2], x2 = 0
Details	mass density [kg/m3]	viscosity [mPa·s]
–	860.5 ± 0.6	0.5641 ± 0.0076

ClC=C(Cl)Cl [trichloroethene]
[1]
Details	mass density [kg/m3]	viscosity [mPa·s]
–	1455.7 ± 1.3	0.551 ± 0.0075

ClC=C(Cl)Cl [trichloroethene] + CC(C)=O
[2]
Details	mass density [kg/m3]	viscosity [mPa·s]
x1 = 0.084	845.9 ± 0.6	0.3412 ± 0.0067
x1 = 0.1712	912.3 ± 0.6	0.3688 ± 0.0068
x1 = 0.2608	978.8 ± 0.6	0.3958 ± 0.0069
x1 = 0.3544	1045 ± 0.6	0.4244 ± 0.007
x1 = 0.4519	1111.6 ± 0.8	0.4501 ± 0.0071
x1 = 0.5528	1179 ± 0.8	0.4723 ± 0.0072
x1 = 0.6582	1246.4 ± 0.9	0.4906 ± 0.0073
x1 = 0.7671	1315.6 ± 1.1	0.5107 ± 0.0074
x1 = 0.8815	1385.7 ± 1.2	0.5309 ± 0.0074
x1 = 1	1455.7 ± 1.3	0.551 ± 0.0075

ClC=C(Cl)Cl [trichloroethene] + CC(C)O
[2]
Details	mass density [kg/m3]	viscosity [mPa·s]
x1 = 0.0866	850.4 ± 0.6	1.764 ± 0.016
x1 = 0.1754	916.6 ± 0.6	1.514 ± 0.014
x1 = 0.2667	982.1 ± 0.6	1.306 ± 0.012
x1 = 0.3613	1047.6 ± 0.6	1.119 ± 0.011
x1 = 0.4594	1113.9 ± 0.8	0.9582 ± 0.0098
x1 = 0.5602	1180.9 ± 0.9	0.8218 ± 0.009
x1 = 0.665	1249.2 ± 0.9	0.7173 ± 0.0084
x1 = 0.7724	1316.8 ± 1.1	0.6451 ± 0.008
x1 = 0.8846	1385.9 ± 1.2	0.6004 ± 0.0078
x1 = 1	1455.7 ± 1.3	0.551 ± 0.0075

ClC=C(Cl)Cl [trichloroethene] + CCC(C)=O
[2]
Details	mass density [kg/m3]	viscosity [mPa·s]
x1 = 0.1004	861.2 ± 0.6	0.4307 ± 0.007
x1 = 0.2005	924.2 ± 0.6	0.4566 ± 0.0071
x1 = 0.3002	987.2 ± 0.6	0.4835 ± 0.0072
x1 = 0.4005	1052.5 ± 0.7	0.5088 ± 0.0073
x1 = 0.5005	1117.6 ± 0.8	0.5281 ± 0.0074
x1 = 0.6007	1183.7 ± 0.8	0.5391 ± 0.0075
x1 = 0.7004	1249.6 ± 0.9	0.5455 ± 0.0075
x1 = 0.8004	1315.5 ± 1.1	0.5499 ± 0.0075
x1 = 0.8998	1385.4 ± 1.2	0.5495 ± 0.0075
x1 = 1	1455.7 ± 1.3	0.551 ± 0.0075

ClC=C(Cl)Cl [trichloroethene] + CCC(C)O
[2]
Details	mass density [kg/m3]	viscosity [mPa·s]
x1 = 0.102	868.5 ± 0.6	2.502 ± 0.022
x1 = 0.2035	932.3 ± 0.6	2.019 ± 0.018
x1 = 0.304	996.3 ± 0.6	1.641 ± 0.015
x1 = 0.4049	1061.2 ± 0.7	1.344 ± 0.013
x1 = 0.505	1125.4 ± 0.8	1.128 ± 0.011
x1 = 0.6051	1190.1 ± 0.9	0.9463 ± 0.0097
x1 = 0.7042	1255.7 ± 1	0.8155 ± 0.0089
x1 = 0.8033	1322 ± 1.1	0.7014 ± 0.0083
x1 = 0.9014	1388.3 ± 1.2	0.6101 ± 0.0078
x1 = 1	1455.7 ± 1.3	0.551 ± 0.0075
